Experimental data reported in a melting point compilation (Tetko et al.; mined from patent text by program, amines drawn as free bases though some values may be those of a salt).

melting point | Structure (SMILES)
138 to 140 °C | Cc1ccc2ccc(O)c(CC(=O)O)c2c1
182 to 184 °C | COc1ccc(S(=O)(=O)NCc2ccco2)c2cc(C(C)=O)oc12
210 to 211 °C | CC(C)CCOc1ccc(-n2cc(C(=O)O)cn2)cc1C#N
183 to 184 °C | CCOC(=O)c1cnc2c3ccccc3ccn2c1=O
69 to 70 °C | CCOC(=O)CCCOc1ccc(-c2ccc(OCC)cc2)cc1C=O
134 °C | CN(Cc1cc(-c2ccc(CC3SC(=O)NC3=O)cc2)cs1)C(=O)c1ccccc1 (configuration not stated)
225 to 227 °C | O=C(NC(=O)c1c(Cl)cccc1Cl)Nc1cc(-c2ccc(-c3ccccc3)cc2)on1
118 to 119 °C | CC(=O)c1ccc(CCC(=O)O)cc1
138 to 140 °C | COc1ccc(C[C@H](NC(=O)OCc2ccccc2)C(=O)N2CCN(CC(=O)OC(C)(C)C)C(=O)[C@@H]2CCCNC(=O)OCc2ccccc2)cc1
220 to 225 °C | CC12CCC3c4ccc(O)cc4C(O)C(Sc4ccc(O)cc4)C3C1CCC2O (configuration not stated)
223 to 225 °C | CON=Cc1ccc2c(c1)c1c(n2CCc2cccc(F)n2)CC[C@@H](NC(=O)C2CC2)C1
189 °C | CCN(CC)c1ccc(-c2cc(-c3ccc(C(=O)O)cc3)ccc2CCCNC2CC2)cc1C(C)(C)C
207 to 208 °C | N=C(N)NCCC[C@@H](NC(=O)C(c1ccccc1)c1ccccc1)C(=O)NCc1ccc(CCC(N)=O)cc1
185 to 186 °C | CC(C)(C)OC(=O)c1cccc(-c2nc(=O)c3ccccc3s2)n1
110 °C | CCOC(=O)c1cc(O)c(C(=O)NCc2ccccc2)cc1O
226 to 227 °C | CC(C)n1c(C=O)c(-c2ccc(F)cc2)c(-c2ccc(F)cc2)c1C(=O)Nc1ccc(CC(=O)N(C)C)cc1
77 to 78 °C | CCCc1c(OCC2Cc3cc(CC(=O)OC)ccc3O2)ccc(C(C)=O)c1O (configuration not stated)
122 to 125 °C | CCCCCCC(C(=O)N1CCCC1CC(=O)O)n1cnc2cc(-c3ccccc3-c3nn[nH]n3)ccc21 (configuration not stated)
156 to 157 °C | Cc1nc(N2CCN(Cc3ccc(C(=O)N4CCCCC4)cc3)C2=O)sc1-c1ccn[nH]1
122 to 124 °C | COC(=O)C(Oc1ccc(CCCCCCCl)cc1)c1ccc(Sc2ccc(Cl)cc2)cc1 (configuration not stated)
60 to 63 °C | COC(=O)COc1cccc(-c2ccc(Cl)cc2)n1

melting point | Structure (SMILES)
238 to 239 °C | Cc1cnc2c(NC(=O)c3c(Cl)cccc3Cl)ccc(Br)c2c1
114 to 115 °C | CC(=O)N[C@@H]1[C@@H](CCO)CC(C(=O)O)=C[C@H]1OC(C)C
101 to 103 °C | COC(=O)C1(C(C[N+](=O)[O-])c2ccccc2)CCc2ccccc2C1=O (configuration not stated)
228 to 230 °C | COc1ccc(Nc2cccc3c2C(=O)N(C2CCC(=O)NC2=O)C3=O)cc1 (configuration not stated)
69 °C | CCCCCCCCCCCP(=O)(c1ccccc1)c1ccccc1
288 to 289 °C | COc1ccc(C(=O)Nc2c(Cl)cncc2Cl)c2c1OCC2CC(=O)NCc1ccccc1Cl (configuration not stated)
182 to 183 °C | CN(C)c1ccc(O)c(CNCCc2ccc(N=C(N)c3cccs3)cc2)c1
119 to 120 °C | CCOC(=O)Cc1csc(NC(=O)C(Cc2ccccc2)NC(=O)OC(C)(C)C)n1 (configuration not stated)
169 to 170 °C | CC(=O)OCCn1c(C(=O)Nc2ccc(OCC(C)(C)C)c(C#N)c2)cc2ccccc21
100 °C | CCCCCCCNC(=O)Nc1ccccc1CCc1cc(C(C)(C)C)c(O)c(C(C)(C)C)c1
121 to 123 °C | CCCc1c(OCCCSc2ccc(C(=O)CCC(=O)O)cc2)ccc(C(C)=O)c1OC(C)=O
250 to 251 °C | COc1cccc(C(=O)Nc2ccc(CN3C(=O)[C@H]4CCC[C@H]4N(C(=O)CN4C(=O)c5ccccc5C4=O)c4ccccc43)cc2)c1 (relative stereo)
143 to 144 °C | CCCCOc1ncc(C(C)=O)cc1-c1nc2c(CC)n(C3CN(CC)C3)nc2c(=O)[nH]1
70 to 71 °C | CCCCc1nc2ccccc2n1CC(=O)O
190 °C | COc1ccc(-c2nc3cc(F)ccc3s2)cc1OC(C)=O
151 to 152 °C | C=C(C)COc1ccc(Br)cc1CN(CC)c1ccc(-c2cc(O)n(C)n2)nn1
186 to 188 °C | O=C(NCc1ccccc1)C(Cc1c[nH]c2ccccc12)NC(=O)C(F)(F)F (configuration not stated)
128 to 129 °C | FC(F)(F)/C(=C(\c1ccccc1)c1ccc(OCc2ccccc2)cc1)c1ccccc1
159 °C | CC(C)(C)OC(=O)c1ccccc1NC(=O)CN1C(=O)c2ccccc2C1=O
115 to 116 °C | CCOP(=O)(CSCCOn1cnc2c(N3C(=O)c4ccccc4C3=O)ncnc21)OCC
130 to 132 °C | COc1ccc(C2Cc3ccccc3N=C(C)N2C)cc1 (configuration not stated)

The next lines start with the molecule.

Structure (SMILES) | melting point
CCCN(C)CCCCC1CCN(S(=O)(=O)c2ccc(C(F)(F)F)cc2)CC1 | 73 to 74.8 °C
Cn1c2c(c(=O)[nH]c1=O)CCC2 | 250 to 251 °C
C=CCN(C)c1nc(-c2cc(OC)c(OC)c(OC)c2)nc2sc(C#N)c(C)c12 | 162 to 164 °C
Cc1cc(C)c(CP(=O)(Cc2c(C)cc(C)cc2C)Cc2c(C)cc(C)cc2C)c(C)c1 | 232 to 233 °C
COC(=O)NN=C(OC)OC | 78.5 to 81.5 °C
Nc1ccc(Sc2cc(Cl)cc(Cl)c2)c(Cl)c1 | 157 to 160 °C
COc1cc(Nc2c(C#N)cnc3cc(N4CCC(N5CCCC5)CC4)c(OC)cc23)c(Cl)cc1Cl | 225 to 227 °C
O=C1CS(=O)(=O)c2ccccc21 | 133 to 134 °C
CC(c1oc2ccccc2c(=O)c1-c1cccc(F)c1)n1nc(-c2cncnc2)c2c(N)ncnc21 (configuration not stated) | 207 to 211 °C
CC(C)(C)S(=O)(=O)N1C[C@@H](F)C[C@@H]1c1cc(F)cc(C#N)c1 | 182 to 184 °C
COC(=O)c1cccc2[nH]nc(S(=O)(=O)NC(C)(C)C)c12 | 218 to 220 °C
CC1CC(=O)N(CCCCN2CCN(c3cncc(Cl)n3)CC2)S(=O)(=O)N1 (configuration not stated) | 107 to 109 °C
Clc1cc(CCc2ccccn2)c2oc(-c3ccc4[nH]nnc4c3)nc2c1 | 242 to 244 °C
c1ccc(NC2CCc3ccccc3C2)cc1 (configuration not stated) | 193 to 196 °C
N=C(N)c1ccc(N2CC(CN3CCCC(C(=O)O)C3)OC2=O)cc1 (configuration not stated) | 198 °C
CCC(C(=O)N(C)C)n1nc(-c2ccccc2)c(C)c1C (configuration not stated) | 119 to 121 °C
Cc1ccc(-c2cc(C(F)(F)F)n3cnc(C#N)c3n2)cc1 | 197 °C
CC(Br)(CC(Cl)(Cl)Cl)c1cccc(Cl)n1 (configuration not stated) | 42 to 45 °C
CN(C)c1ccc(Nc2ccccc2)cc1 | 163 to 166 °C
CCCCNc1nc(-c2cc(OC)c(OC)c(OC)c2)nc2sc(C#N)c(C)c12 | 192 to 194 °C
FC(F)(F)Oc1ccc(-c2ccc3[nH]c4c(ccc5cc[nH]c54)c3c2)cc1 | > 250 °C
CC(C)OC(=O)N1CCC(NC(=O)N2CCn3c(c(C(N)=O)c(C#N)c3C3CCOCC3)C2)CC1 | 124 to 126 °C
Cc1ccc(S(=O)(=O)CNC=O)cc1 | 103 to 107 °C
c1ccc2c(c1)OCC(c1ncc[nH]1)O2 (configuration not stated) | 225 to 227 °C
CCOC(=O)N1CCN(c2ccc3nc4[nH]c(=O)[nH]c4cc3c2)CC1 | > 300 °C
COc1ccc(N(C(=O)CN2C(=O)C(Cc3cc(C)nn3Cc3ccccc3)C(=O)N(c3ccccc3)c3ccccc32)C(C)C)cc1 (configuration not stated) | 117 to 120 °C
C#CCCCCCC(=O)Nc1nc2nn(C)cc2c2nc(-c3ccco3)nn12 | 204 to 208 °C
CCCCNC(=O)c1nc2ccc(OC)cc2[nH]1 | 125 to 126 °C

Structure (SMILES) | melting point
CCN1CCN2C1=Nc1ccc(Cl)cc1C2c1ccccc1 (configuration not stated) | 145 to 146 °C
CC(=O)n1ncc2c(O)cccc21 | 140 to 142 °C
O=CNC1=NN(c2ccc(Cl)cc2)C(c2ccccc2)C1 (configuration not stated) | 164 to 166 °C
CC(CCC(=O)NC(C)(C)C)C1CC=C2C3=C(CCC21C)C1(C)CCC(O)C(C)(C)C1CC3 (configuration not stated) | 171 to 176 °C
COc1cccc(-n2c(-c3cc(-c4ccccc4)c(N4CCOCC4)s3)nc3ccccc3c2=O)c1 | 269 to 272 °C
CCS(=O)CC(=C1NCCCS1)[N+](=O)[O-] (configuration not stated) | 102 to 104 °C
C=C(C)c1nnc(-c2cc3c([nH]c2=O)CCN(Cc2ccccc2)C3)o1 | 221 to 223 °C
CCCCc1nc2c(N)nc(C)c(C)c2n1CCCCCS(N)(=O)=O | 130 °C
Cn1cc2c(c1-c1ccccc1)C(=O)c1ccccc1C2=O | 268 to 271 °C
CCC(=O)C1(Nc2ccccc2)CCN(CCc2ccccc2)CC1 | 106 °C
CC1(Cn2c(=O)oc3ccccc32)Cn2cc([N+](=O)[O-])nc2O1 (configuration not stated) | 223 to 224 °C
O=C(O)COC1=C(C(=O)Nc2cc(Cl)cc(Cl)c2)SC2=NCCCN21 | 247 °C
O=S(=O)(CC(Cl)(Cl)Cl)c1cc(Cl)ccc1Cl | 96 °C
Cc1cccc(-c2[nH]c(C(C)C)nc2-c2cccc(-c3ccc(S(N)(=O)=O)cc3F)c2)n1 | 246 to 248 °C
O=C(O)c1c[nH]c(=O)n(-c2ccccc2S)c1=O | 254 to 255 °C
O=C(NC[C@@H]1CN2C(=O)C[C@H]2O1)c1ccccc1 (racemic) | 115 to 116 °C
O=C1CC2CCS(=O)c3ccccc3C2=NN1c1ccc(Cl)cc1 (configuration not stated) | 190 to 191 °C
Cc1cc(COc2c(Cl)cc(C=O)cc2Cl)oc(=O)c1 | 180 °C
Clc1cc(Cl)n2ncc(Br)c2n1 | 73 to 75 °C
O=C1CN(c2ccc(Cl)cc2)C(=O)N1S(=O)(=O)c1ccc(Cl)cc1 | 239 to 240 °C
O=C(Cc1nnn[nH]1)OCc1ccccc1 | 72 to 73 °C
CC(C)(C)OC(=O)NN[C@@H]1c2cc(C#N)ccc2OC(C)(C)[C@H]1O (relative stereo) | 136 to 138 °C
Nc1ncnc2c1ncn2CCCN1CCC(NC(=O)c2ccccc2)CC1 | 213 to 214 °C
Cn1cc(C2=C(c3c4n(c5ccccc35)CCC(COS(C)(=O)=O)C4)C(=O)NC2=O)c2ccccc21 (configuration not stated) | 259 to 261 °C
Clc1ccc2c(c1)C(c1ccccc1)=NCc1nnc(CN3CCCCC3)n1-2 | 202 to 203 °C
c1ccc2[nH]c(Cc3ccncc3)nc2c1 | 185 to 186 °C
O=C(NC1CCCC1)c1ccc(-c2ccc3nnn(Cc4ccc5ncccc5c4)c3n2)cc1F | 166 to 168 °C
